This note sets out measurements from US20250263390A1, “NOVEL SUBSTITUTED 6,7-DIHYDRO-5H-BENZO[7]ANNULENE COMPOUNDS AND THEIR DERIVATIVES, PROCESSES FOR THEIR PREPARATION AND THERAPEUTIC USES THEREOF” (SANOFI, priority 2022, published 2025).

The test has as its target T1, ERα (Homo sapiens, UniProt P03372).
T1 construct: host or cells: MCF7
T1 sequence (P03372 1-595): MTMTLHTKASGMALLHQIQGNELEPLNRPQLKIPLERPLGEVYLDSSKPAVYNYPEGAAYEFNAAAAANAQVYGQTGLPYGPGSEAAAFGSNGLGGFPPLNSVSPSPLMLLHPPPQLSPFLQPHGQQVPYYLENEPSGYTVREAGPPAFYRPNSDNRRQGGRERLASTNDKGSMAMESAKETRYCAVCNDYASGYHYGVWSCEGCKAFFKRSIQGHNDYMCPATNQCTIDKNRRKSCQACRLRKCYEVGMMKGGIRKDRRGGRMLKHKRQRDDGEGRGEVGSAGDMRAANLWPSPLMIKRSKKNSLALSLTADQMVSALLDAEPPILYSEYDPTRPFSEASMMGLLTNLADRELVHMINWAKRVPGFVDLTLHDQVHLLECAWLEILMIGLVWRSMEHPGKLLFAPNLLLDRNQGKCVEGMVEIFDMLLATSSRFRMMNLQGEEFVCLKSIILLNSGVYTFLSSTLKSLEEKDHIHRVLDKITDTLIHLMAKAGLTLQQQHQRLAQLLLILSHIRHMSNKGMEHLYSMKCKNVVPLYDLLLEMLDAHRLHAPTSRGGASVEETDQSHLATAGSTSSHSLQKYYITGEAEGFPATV
Nature of the test: Estrogen receptor degradation activity: breast cancer cell ERα in cell western assay. The format is cell-based. As to conditions: MCF7 cells, 4 hours, relative to fulvestrant 0.1 μM positive control. On the procedure: Test: Estrogen Receptor Degradation Activity Said test involves measuring the in vitro degradation activity of the compounds of the Table 1a. The measurements of the degradation activities were made using a breast cancer cell ERα in cell western assay as described hereunder. MCF7 cells (ATCC) were seeded in 384 wells microplate (collagen coated) at a concentration of 10000 cells/30 μL per well in red phenol free MEM alpha medium (invitrogen) containing 5% charcoal dextran striped FBS. The following day, 9 points serial 1:5 dilution of each compound was added to the cells in 2.5p L at final concentrations ranging from 0.3-0.0000018 μM (in table 2), or 0.1 μM for fulvestrant (using as positive control). At 4 hours post compound addition the cells were fixed by adding 25 μL of formalin (final concentration 5% formalin containing 0.1% triton) for 10 minutes at room temperature and then washed twice with PBS. Then, 50 μL of LI-COR blocking buffer containing 0.1% Triton was added to plate for 30 minutes at room temperature. LI-COR blocking buffer was removed and cells were incubated overnight at cold room with 50 μL anti-ER rabbit monoclonal antibody (Thermo scientific MA1-39540) diluted at 1:1000 in LI-COR blocking buffer containing 0.1% tween-20. Wells which were treated with blocking buffer but no antibody were used as background control. Wells were washed twice with PBS (0.1% tween-20) and incubated at 37° C. for 60 minutes in LI-COR (0.1% tween-20) containing goat anti-rabbit antibody Alexa 488 (1:1000) and Syto-64 a DNA dye (2 μM final concentration). Cells were then washed 3 times in PBS and scanned in ACUMEN explorer (TTP-Labtech). Integrated intensities in the green fluorescence and red fluorescence were measured to determine the levels of ERα and DNA respectively. The degradation activity with respect to estrogen receptors in this test is given by the concentration which degrades 50% of the estrogen receptor (or IC50) in nM. The % of ERα levels decrease were determined as follows: % inhibition=100*(1−(sample−fulvestrant: DMSO−fulvestrant)).
Take `O=C(O)c1ccc2c(c1)CCCC(C1CC(CO)C1)=C2c1ccc(CC2CN(CCCF)C2)cc1` (centres unmarked) [Compound 21, 9-(4-((1-(3-fluoropropyl)azetidin-3-yl)methyl)phenyl)-8-(3-(hydroxymethyl)cyclobutyl)-6,7-dihydro-5H-benzo[7]annulene-3-carboxylic acid]: the “% Degradation At 0.3 μM” value is 100%.
As for `Cl.O=C(O)c1ccc2c(c1)CCCC(c1cccc(OC(F)(F)F)c1)=C2c1ccc(CC2CN(CCCF)C2)cc1` [Compound 22, 9-(4-((1-(3-fluoropropyl)azetidin-3-yl)methyl)phenyl)-8-(3-(trifluoromethoxy)phenyl)-6,7-dihydro-5H-benzo[7]annulene-3-carboxylic acid, hydrochloride], the “% Degradation At 0.3 μM” value is listed as 92%.
As for `Cc1ccc(C(F)F)c(C2=C(c3ccc(CC4CN(CCCF)C4)cc3)c3ccc(C(=O)O)cc3CCC2)c1` [Compound 23, 8-(2-(difluoromethyl)-5-methylphenyl)-9-(4-((1-(3-fluoropropyl)azetidin-3-yl)methyl)phenyl)-6,7-dihydro-5H-benzo[7]annulene-3-carboxylic acid], the figure is 91%; as for `COc1ccc(C2=C(c3ccc(CC4CN(CCCF)C4)cc3)c3ccc(C(=O)O)cc3CCC2)c(C(F)F)c1` [Compound 24, 8-(2-(difluoromethyl)-4-methoxyphenyl)-9-(4-((1-(3-fluoropropyl)azetidin-3-yl)methyl)phenyl)-6,7-dihydro-5H-benzo[7]annulene-3-carboxylic acid], 92%.
Take `COc1ccc(C2=C(c3ccc(CC4CN(CCCF)C4)cc3)c3ccc(C(=O)O)cc3CCC2)c(C(F)(F)F)c1.Cl` [Compound 25, 9-(4-((1-(3-fluoropropyl)azetidin-3-yl)methyl)phenyl)-8-(4-methoxy-2-(trifluoromethyl)phenyl)-6,7-dihydro-5H-benzo[7]annulene-3-carboxylic acid, hydrochloride]: the “% Degradation At 0.3 μM” value was 92%.
As to `Cc1cc(C2=C(c3ccc(CC4CN(CCCF)C4)cc3)c3ccc(C(=O)O)cc3CCC2)ccc1C(F)(F)F` [Compound 26, 9-(4-((1-(3-fluoropropyl)azetidin-3-yl)methyl)phenyl)-8-(3-methyl-4-(trifluoromethyl)phenyl)-6,7-dihydro-5H-benzo[7]annulene-3-carboxylic acid], the “% Degradation At 0.3 μM” value was 93%.
In the case of `O=C(O)c1ccc2c(c1)CCCC(c1ccc(OC(F)(F)F)cc1)=C2c1ccc(CC2CN(CCCF)C2)cc1` [Compound 27, 9-(4-((1-(3-fluoropropyl)azetidin-3-yl)methyl)phenyl)-8-(4-(trifluoromethoxy)phenyl)-6,7-dihydro-5H-benzo[7]annulene-3-carboxylic acid] it was 93%; in that of `COc1ccc(C(F)(F)F)cc1C1=C(c2ccc(CC3CN(CCCF)C3)cc2)c2ccc(C(=O)O)cc2CCC1.Cl` [Compound 28, 9-(4-((1-(3-fluoropropyl)azetidin-3-yl)methyl)phenyl)-8-(2-methoxy-5-(trifluoromethyl)phenyl)-6,7-dihydro-5H-benzo[7]annulene-3-carboxylic acid, hydrochloride], 80%.
On to `Cc1ccc(C2=C(c3ccc(CC4CN(CCCF)C4)cc3)c3ccc(C(=O)O)cc3CCC2)cc1C(F)(F)F` [Compound 29, 9-(4-((1-(3-fluoropropyl)azetidin-3-yl)methyl)phenyl)-8-(4-methyl-3-(trifluoromethyl)phenyl)-6,7-dihydro-5H-benzo[7]annulene-3-carboxylic acid], for which the “% Degradation At 0.3 μM” value worked out at 93%.
For `O=C(O)c1ccc2c(c1)CCCC(c1ccccc1OC(F)(F)F)=C2c1ccc(CC2CN(CCCF)C2)cc1` [Compound 30, 9-(4-((1-(3-fluoropropyl)azetidin-3-yl)methyl)phenyl)-8-(2-(trifluoromethoxy)phenyl)-6,7-dihydro-5H-benzo[7]annulene-3-carboxylic acid], the “% Degradation At 0.3 μM” value was 92%.
For `Cc1cc(C2=C(c3ccc(CC4CN(CCCF)C4)cc3)c3ccc(C(=O)O)cc3CCC2)c(C)cc1F` [Compound 31, 8-(4-fluoro-2,5-dimethylphenyl)-9-(4-((1-(3-fluoropropyl)azetidin-3-yl)methyl)phenyl)-6,7-dihydro-5H-benzo[7]annulene-3-carboxylic acid], the “% Degradation At 0.3 μM” value was found to be 92%.
On to `Cl.O=C(O)c1ccc2c(c1)CCCC(c1ccc(C(F)(F)F)cc1C1CC1)=C2c1ccc(CC2CN(CCCF)C2)cc1` [Compound 32, 8-(2-cyclopropyl-4-(trifluoromethyl)phenyl)-9-(4-((1-(3-fluoropropyl)azetidin-3-yl)methyl)phenyl)-6,7-dihydro-5H-benzo[7]annulene-3-carboxylic acid, hydrochloride], for which the “% Degradation At 0.3 μM” value amounted to 91%.
As for `Cc1cccc(C(F)(F)F)c1C1=C(c2ccc(CC3CN(CCCF)C3)cc2)c2ccc(C(=O)O)cc2CCC1` [Compound 33, 9-(4-((1-(3-fluoropropyl)azetidin-3-yl)methyl)phenyl)-8-(2-methyl-6-(trifluoromethyl)phenyl)-6,7-dihydro-5H-benzo[7]annulene-3-carboxylic acid], the “% Degradation At 0.3 μM” value came out at 91%.
Turning to `Cc1cc(C2=C(c3ccc(CC4CN(CCCF)C4)cc3)c3ccc(C(=O)O)cc3CCC2)cc(C(F)(F)F)c1.Cl` [Compound 34, 9-(4-((1-(3-fluoropropyl)azetidin-3-yl)methyl)phenyl)-8-(3-methyl-5-(trifluoromethyl)phenyl)-6,7-dihydro-5H-benzo[7]annulene-3-carboxylic acid, hydrochloride], the “% Degradation At 0.3 μM” value was determined as 90%.
As to `COc1ccc(C(F)(F)F)c(C2=C(c3ccc(CC4CN(CCCF)C4)cc3)c3ccc(C(=O)O)cc3CCC2)c1` [Compound 35, 9-(4-((1-(3-fluoropropyl)azetidin-3-yl)methyl)phenyl)-8-(5-methoxy-2-(trifluoromethyl)phenyl)-6,7-dihydro-5H-benzo[7]annulene-3-carboxylic acid], the “% Degradation At 0.3 μM” value was found to be 91%.
For the compound `C=Cc1c(F)cccc1C1=C(c2ccc(CC3CN(CCCF)C3)cc2)c2ccc(C(=O)O)cc2CCC1` [Compound 36, 8-(3-fluoro-2-vinylphenyl)-9-(4-((1-(3-fluoropropyl)azetidin-3-yl)methyl)phenyl)-6,7-dihydro-5H-benzo[7]annulene-3-carboxylic acid], the “% Degradation At 0.3 μM” value worked out at 92%.
In the case of `CCc1c(F)cccc1C1=C(c2ccc(CC3CN(CCCF)C3)cc2)c2ccc(C(=O)O)cc2CCC1` [Compound 37, 8-(2-ethyl-3-fluorophenyl)-9-(4-((1-(3-fluoropropyl)azetidin-3-yl)methyl)phenyl)-6,7-dihydro-5H-benzo[7]annulene-3-carboxylic acid] it was 94%; in that of `CCc1c(Cl)cccc1C1=C(c2ccc(CC3CN(CCCF)C3)cc2)c2ccc(C(=O)O)cc2CCC1` [Compound 38, 8-(3-chloro-2-ethylphenyl)-9-(4-((1-(3-fluoropropyl)azetidin-3-yl)methyl)phenyl)-6,7-dihydro-5H-benzo[7]annulene-3-carboxylic acid], 92%; in that of `O=C(O)c1ccc2c(c1)CCCC(c1ccc(C(F)(F)F)cc1C(F)(F)F)=C2c1ccc(CC2CN(CCCF)C2)cc1` [Compound 39, 8-(2,4-bis(trifluoromethyl)phenyl)-9-(4-((1-(3-fluoropropyl)azetidin-3-yl)methyl)phenyl)-6,7-dihydro-5H-benzo[7]annulene-3-carboxylic acid], 95%.
Regarding `Cc1cccc(Cl)c1C1=C(c2ccc(CC3CN(CCCF)C3)cc2)c2ccc(C(=O)O)cc2CCC1.Cl` [Compound 40, 8-(2-chloro-6-methylphenyl)-9-(4-((1-(3-fluoropropyl)azetidin-3-yl)methyl)phenyl)-6,7-dihydro-5H-benzo[7]annulene-3-carboxylic acid, hydrochloride], the “% Degradation At 0.3 μM” value is recorded as 91%.
